Data taken from ChEMBL document CHEMBL1201862, “PubChem BioAssay data set” (2004).
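These data come from cells grown in 96-well plates and exposed to compound for 48 hours at five concentrations. At the GI50, growth is halved.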 Activity calls are given as the source filed them. No stated cut-off is given here; in the data, active = GI50 up to about 1.1 µM and inactive = higher.

Tests used:
Experiment in all cases: NCI tumour cell line growth inhibition, 48 h
[1] = tested on: A549
[2] = tested on: CCRF-CEM
[3] = tested on: COLO 205
[4] = tested on: EKVX
[5] = tested on: HCT-116
[6] = tested on: K562
[7] = tested on: KM12
[8] = tested on: LOX IMVI
[9] = tested on: MOLT-4
[10] = tested on: NCI-H23
[11] = tested on: NCI-H460
[12] = tested on: NCI-H522
[13] = tested on: RPMI-8226
[14] = tested on: SF-268
[15] = tested on: SF-539
[16] = tested on: SK-OV-3
[17] = tested on: SNB-75
[18] = tested on: SW-620
[19] = tested on: U-251
[20] = tested on: UACC-257

Measured: GI50

C#CCNC(=O)CCC(N)C(=O)O (stereo not given)
inactive: [1] > 100 µM | [2] > 100 µM | [3] > 100 µM | [4] > 100 µM | [5] > 100 µM | [6] > 100 µM | [7] > 100 µM | [8] > 100 µM | [9] > 100 µM | [10] > 100 µM | [11] > 100 µM | [12] > 100 µM | [13] > 100 µM | [14] > 100 µM | [15] > 100 µM | [16] > 100 µM | [17] > 100 µM | [18] > 100 µM | [19] > 100 µM | [20] > 100 µM

CN(C)/N=C(/CC(O)(C(F)(F)F)C(F)(F)F)c1ccc([N+](=O)[O-])cc1
inactive: [1] > 100 µM | [2] > 100 µM | [3] > 100 µM | [4] > 100 µM | [5] > 100 µM | [6] > 100 µM | [7] > 100 µM | [8] > 100 µM | [9] > 100 µM | [10] > 100 µM | [11] > 100 µM | [12] > 100 µM | [13] > 100 µM | [14] > 100 µM | [15] > 100 µM | [16] > 100 µM | [17] > 100 µM | [18] > 100 µM | [19] > 100 µM | [20] > 100 µM
